In patent US10160729B2, “Hsp70 modulators and methods for making and using the same” (Memorial Sloan Kettering Cancer Center, priority 2014, dated 2018):

tested on: MOLM-13 cells; test: Caspase cleavage assay (Caspase3, 7 activation); format: cell-based; conditions: Homo sapiens, 16 h treatment, caspase substrate Z-DEVD-R110, read-out: c* Concentration at which 50% of the maximum signal was achieved (caspase activation)
Procedure, shortened: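 Cells (30,000/well, RPMI) treated 16 h with compound or DMSO in triplicate, then given buffer with 10 mM HEPES pH 7.5, 2 mM EDTA, 0.1% CHAPS and 25 μM Z-DEVD-R110. Fluorescence read once signal stabilized; results given as percentage increase in apoptotic cells versus DMSO-treated control.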

First: CN1CCN(c2ncc(Sc3ccc(N)nc3)c(OCc3cccc(C#N)c3)n2)CC1 [compound 152, 3-(((5-((6-Aminopyridin-3-yl)thio)-2-(4-methylpiperazin-1-yl)pyrimidin-4-yl)oxy)methyl)benzonitrile]
Second: CN1CCN(c2ncc(Sc3ccc(N)nc3)c(OCc3cccc(N(C)C)c3)n2)CC1 [compound 153, 5-((4-((3-(Dimethylamino)benzyl)oxy)-2-(4-methylpiperazin-1-yl)pyrimidin-5-yl)thio)pyridin-2-amine]
The EC50 of the first is higher: 200 to 400 nM for the first, < 200 nM for the second. The second is the more potent here.

`CN1CCN(c2ncc(Sc3ccc(N)nc3)c(OCc3ccc(F)c(Cl)c3)n2)CC1` [compound 154, 5-((4-((3-Chloro-4-fluorobenzyl)oxy)-2-(4-methylpiperazin-1-yl)pyrimidin-5-yl)thio)pyridin-2-amine] and `CN1CCN(c2ncc(Sc3ccc(N)nc3)c(OCc3ccc(F)c(Br)c3)n2)CC1` [compound 155, 5-((4-((3-Bromo-4-fluorobenzyl)oxy)-2-(4-methylpiperazin-1-yl)pyrimidin-5-yl)thio)pyridin-2-amine] cannot be ordered by EC50: < 200 nM for the first, < 200 nM for the second.

First: CN1CCN(c2ncc(Sc3ccc(N)nc3)c(OCc3ccc(F)c(C(F)(F)F)c3)n2)CC1 [compound 156, 5-((4-((4-Fluoro-3-(trifluoromethyl)benzyl)oxy)-2-(4-methylpiperazin-1-yl)pyrimidin-5-yl)thio)pyridin-2-amine]
Second: COc1ccc(F)c(COc2nc(N3CCN(C)CC3)ncc2Sc2ccc(N)nc2)c1 [compound 157, 5-((4-((2-Fluoro-5-methoxybenzyl)oxy)-2-(4-methylpiperazin-1-yl)pyrimidin-5-yl)thio)pyridin-2-amine]
The EC50 of the first is higher: 200 to 400 nM for the first, < 200 nM for the second.

Compared with `COc1c(F)ccc(COc2nc(N3CCN(C)CC3)ncc2Sc2ccc(N)nc2)c1F` [compound 158, 5-((4-((2,4-Difluoro-3-methoxybenzyl)oxy)-2-(4-methylpiperazin-1-yl)pyrimidin-5-yl)thio)pyridin-2-amine], `COc1cccc(COc2nc(N3CCN(C4(C)CC4)CC3)ncc2Sc2ccc(C(N)=O)cc2)c1` [compound 311, 4-((4-((3-Methoxybenzyl)oxy)-2-(4-(1-methylcyclopropyl)piperazin-1-yl)pyrimidin-5-yl)thio)benzamide] is higher in EC50: < 200 nM for the first, ≥ 1200 nM for the second. The first is the more potent here.

`NC(=O)c1ccc(Sc2cnc(N3CCNCC3)nc2OCc2ccccc2)cc1` [compound 167, 4-((4-(Benzyloxy)-2-(piperazin-1-yl)pyrimidin-5-yl)thio)benzamide] and `CC(=O)N1CCN(c2ncc(Sc3ccc(C(N)=O)cc3)c(OCc3ccccc3)n2)CC1` [compound 168, 4-((2-(4-Acetylpiperazin-1-yl)-4-(benzyloxy)pyrimidin-5-yl)thio)benzamide] cannot be ordered by EC50: ≥ 1200 nM for the first, ≥ 1200 nM for the second.

First: C[C@@H]1CN(C)[C@@H](C)CN1c1ncc(Sc2ccc(C(N)=O)cc2)c(OCc2ccccc2)n1 [compound 182, 4-((4-(Benzyloxy)-2-((2R,5S)-2,4,5-trimethylpiperazin-1-yl)pyrimidin-5-yl)thio)benzamide]
Second: CN(C)[C@@H]1CCN(c2ncc(Sc3ccc(C(N)=O)cc3)c(OCc3ccccc3)n2)C1 [compound 207, (R)-4-((4-(Benzyloxy)-2-(3-(dimethylamino)pyrrolidin-1-yl)pyrimidin-5-yl)thio)benzamide]
The EC50 of the first is higher: ≥ 1200 nM for the first, 400 to 1000 nM for the second. The second is the more potent here.

First: CN(C)c1cccc(COc2nc(-c3cc[nH]c3)ncc2Sc2ccc(C(N)=O)cc2)c1 [compound 187, 4-((4-((3-(Dimethylamino)benzyl)oxy)-2-(1H-pyrrol-3-yl)pyrimidin-5-yl)thio)benzamide]
Second: CN(C)[C@@H]1CCN(c2ncc(Sc3ccc(C(N)=O)cc3)c(OCc3cccc(OC(F)(F)F)c3)n2)C1 [compound 205, (R)-4-((2-(3-(Dimethylamino)pyrrolidin-1-yl)-4-((3-(trifluoromethoxy)benzyl)oxy)pyrimidin-5-yl)thio)benzamide]
The EC50 of the first is higher: 1000 to 1200 nM for the first, 400 to 1000 nM for the second.

`COc1cccc(COc2nc(N3CCN(C)C[C@H]3C)ncc2Sc2ccc(C(N)=O)cc2)c1` [compound 193, (R)-4-((2-(2,4-dimethylpiperazin-1-yl)-4-((3-methoxybenzyl)oxy)pyrimidin-5-yl)thio)benzamide] and `COc1cccc(COc2nc(N3CC4CC3CN4C)ncc2Sc2ccc(C(N)=O)cc2)c1` (centres unmarked) [compound 195] cannot be ordered by EC50: ≥ 1200 nM for the first, ≥ 1200 nM for the second.

Compared with `C#CCN1CCN(c2ncc(Sc3ccc(C(N)=O)cc3)c(OCc3cccc(OC)c3)n2)CC1` [compound 198, 4-((4-((3-Methoxybenzyl)oxy)-2-(4-(prop-2-yn-1-yl)piperazin-1-yl)pyrimidin-5-yl)thio)benzamide], `COc1cccc(COc2nc(N3CCN([C@@H](C)C4CC4)CC3)ncc2Sc2ccc(C(N)=O)cc2)c1` [compound 315, (S)-4-((2-(4-(1-Cyclopropylethyl)piperazin-1-yl)-4-((3-methoxybenzyl)oxy)pyrimidin-5-yl)thio)benzamide] is higher in EC50: < 200 nM for the first, 1000 to 1200 nM for the second. The first is the more potent here.

First: CN(C)[C@@H]1CCN(c2ncc(Sc3ccc(C(N)=O)cc3)c(OCc3ccnc(N)c3)n2)C1 [compound 206, (R)-4-((4-((2-Aminopyridin-4-yl)methoxy)-2-(3-(dimethylamino)pyrrolidin-1-yl)pyrimidin-5-yl)thio)benzamide]
Second: COc1cc(COc2nc(N3CC[C@@H](N(C)C)C3)ncc2Sc2ccc(C(N)=O)cc2)ccc1F [compound 208, (R)-4-((2-(3-(Dimethylamino)pyrrolidin-1-yl)-4-((4-fluoro-3-methoxybenzyl)oxy)pyrimidin-5-yl)thio)benzamide]
The EC50 of the first is higher: 400 to 1000 nM for the first, < 200 nM for the second.

First: COc1cc(COc2nc(N3CC[C@@H](N(C)C)C3)ncc2Sc2ccc(C(N)=O)c(Cl)c2)ccc1F [compound 212, (R)-2-Chloro-4-((2-(3-(dimethylamino)pyrrolidin-1-yl)-4-((4-fluoro-3-methoxybenzyl)oxy)pyrimidin-5-yl)thio)benzamide]
Second: COc1cc(COc2nc(N3CC[C@@H](N)C3)ncc2Sc2ccc(C(N)=O)c(Cl)c2)ccc1F [compound 213, (R)-4-((2-(3-Aminopyrrolidin-1-yl)-4-((4-fluoro-3-methoxybenzyl)oxy)pyrimidin-5-yl)thio)-2-chlorobenzamide]
The EC50 of the first is lower: < 200 nM for the first, ≥ 1200 nM for the second. The first is the more potent here.

First: CN[C@@H]1CCN(c2ncc(Sc3ccc(C(N)=O)c(Cl)c3)c(OCc3ccc(F)c(OC)c3)n2)C1 [compound 214, (R)-2-Chloro-4-((4-((4-fluoro-3-methoxybenzyl)oxy)-2-(3-(methylamino)pyrrolidin-1-yl)pyrimidin-5-yl)thio)benzamide]
Second: CN(C)[C@@H]1CCN(c2ncc(Sc3ccc(C(N)=O)c(C(F)(F)F)c3)c(OCc3cccc(Cl)c3)n2)C1 [compound 218, (R)-4-((4-((3-Chlorobenzyl)oxy)-2-(3-(dimethylamino)pyrrolidin-1-yl)pyrimidin-5-yl)thio)-2-(trifluoromethyl)benzamide]
The EC50 of the first is higher: 400 to 1000 nM for the first, < 200 nM for the second. The second is the more potent here.

First: CN(C)C1CN(c2ncc(Sc3ccc(C(N)=O)c(C(F)(F)F)c3)c(OCc3cccc(Cl)c3)n2)C1 [compound 225, 4-((4-((3-Chlorobenzyl)oxy)-2-(3-(dimethylamino)azetidin-1-yl)pyrimidin-5-yl)thio)-2-(trifluoromethyl)benzamide]
Second: NC(=O)c1ccc(Sc2cnc(N3CCN(C4CC4)CC3)nc2OCc2cccc(Cl)c2)cc1C(F)(F)F [compound 227, 4-((4-((3-Chlorobenzyl)oxy)-2-(4-cyclopropylpiperazin-1-yl)pyrimidin-5-yl)thio)-2-(trifluoromethyl)benzamide]
The EC50 of the first is lower: 200 to 400 nM for the first, ≥ 1200 nM for the second. The first is the more potent here.

First: C#CCCCCN1CCN(c2ncc(Sc3ccc(C(N)=O)c(C(F)(F)F)c3)c(OCc3cccc(Cl)c3)n2)CC1 [compound 226, 4-((4-((3-Chlorobenzyl)oxy)-2-(4-(hex-5-yn-1-yl)piperazin-1-yl)pyrimidin-5-yl)thio)-2-(trifluoromethyl)benzamide]
Second: NC(=O)c1ccc(Sc2cnc(N3CCN(Cc4ccco4)CC3)nc2OCc2cccc(Cl)c2)cc1C(F)(F)F [compound 228, 4-((4-((3-Chlorobenzyl)oxy)-2-(4-(furan-2-ylmethyl)piperazin-1-yl)pyrimidin-5-yl)thio)-2-(trifluoromethyl)benzamide]
The EC50 of the first is higher: 200 to 400 nM for the first, < 200 nM for the second. The second is the more potent here.

First: NC(=O)c1ccc(Sc2cnc(N3CCN(Cc4nccs4)CC3)nc2OCc2cccc(Cl)c2)cc1C(F)(F)F [compound 229, 4-((4-((3-Chlorobenzyl)oxy)-2-(4-(thiazol-2-ylmethyl)piperazin-1-yl)pyrimidin-5-yl)thio)-2-(trifluoromethyl)benzamide]
Second: COc1cccc(COc2nc(N3CCN(C(C)(C)C4CC4)CC3)ncc2Sc2ccc(C(N)=O)cc2)c1 [compound 313, 4-((2-(4-(2-Cyclopropylpropan-2-yl)piperazin-1-yl)-4-((3-methoxybenzyl)oxy)pyrimidin-5-yl)thio)benzamide]
The EC50 of the first is lower: 200 to 400 nM for the first, ≥ 1200 nM for the second. The first is the more potent here.

First: CN1CCN(c2ncc(Oc3ccc(C(N)=O)cc3)c(OCc3ccccc3)n2)CC1 [compound 282, 4-((4-(Benzyloxy)-2-(4-methylpiperazin-1-yl)pyrimidin-5-yl)oxy)benzamide]
Second: CN1CCN(c2ncc(Cc3ccc(C(N)=O)cc3)c(OCc3ccccc3)n2)CC1 [compound 299, 4-((4-(Benzyloxy)-2-(4-methylpiperazin-1-yl)pyrimidin-5-yl)methyl)benzamide]
The EC50 of the first is higher: ≥ 1200 nM for the first, 200 to 400 nM for the second. The second is the more potent here.

First: COc1ccc(COc2nc(N3CCN(C)CC3)ncc2Oc2ccc(C(N)=O)cc2)cc1 [compound 283, 4-((4-((4-Methoxybenzyl)oxy)-2-(4-methylpiperazin-1-yl)pyrimidin-5-yl)oxy)benzamide]
Second: CN1CCN(c2ncc(Oc3ccc(C(N)=O)cc3)c(OCc3cccc(N(C)C)c3)n2)CC1 [compound 284, 4-((4-((3-(Dimethylamino)benzyl)oxy)-2-(4-methylpiperazin-1-yl)pyrimidin-5-yl)oxy)benzamide]
The EC50 of the first is higher: ≥ 1200 nM for the first, 400 to 1000 nM for the second.

For `CN1CCN(c2ncc(Cc3ccc(C(N)=O)cc3)c(OCc3ccc(C#N)cc3)n2)CC1` [compound 304, 4-((4-((4-Cyanobenzyl)oxy)-2-(4-methylpiperazin-1-yl)pyrimidin-5-yl)methyl)benzamide], the EC50 was ≥ 1200 nM.
